Residues, ends and D or L forms follow the SMILES beside them. *: point of attachment. Cbz = O=C(OCc1ccccc1)*; CH2F = FC*
Assays:
[1] = system: S6 phosphorylation in intestinal epithelial cells (IEC); assay: S6 phosphorylation in intestinal epithelial cells of wildtype mice; assay type: in vivo; conditions: azoxymethane (10 mg/kg single injection), untransformed wildtype mice
Description: (§1) Data are mean±SD, n=3. […] Data are mean±SD, n=3.
Immunostaining was performed as previously described (35). Briefly, tissues were fixed with 4% paraformaldehyde. Six μm OCT frozen tissue sections or 5 μm paraffin-embedded tissue sections were processed for immunostaining using a standard histological protocol. Following primary antibodies were used: EGFP (Abcam, #ab6673), tdTomato (Rockland, #600-401-379), cleaved caspase 3 (Cell Signaling, #9579), Ki67 (Leica Bioststems, #NCL-L-Ki67-MM1), phospho-S6 (Cell Signaling, #2211),P2x4 (Abcam #134559). Sections were then incubated with HRPconjugated antibodies (Dako) and signal was detected with DAB reaction. For immunofluorescence staining after primary antibody incubation, sections were incubated with flourochrome-labelled secondary antibodies (Invitrogen) and sections were mounted with ProLong Gold Antifade Mountant with DAPI (Invitrogen, #P36931). Images were captured on a Zeiss microscope.

[2] = system: refractory metastatic colorectal cancer / refractory solid tumors; conditions: further addition of panitumumab to everolimus + mFOLFOX6; cited from earlier work
[3] = system: S6 ribosomal protein phosphorylation (mTOR signaling); assay: Immunoblot analysis of survival pathways / S6 phosphorylation in AOM/DSS tumor organoids; assay type: cell-based, mice; conditions: for ATP induced phosphorylation of S6: ATP (100 μM) in presence of inhibitor, AOM/DSS tumor organoids
Description: Data are mean±SD, n=7. *p<0.05 by two-tailed Student's t-test. c, Immunoblot analysis of Lgr5EGFP-DTR(−) tumor organoids treated with ATP (100 μM), 2MeS ADP (100 μM) and adenosine (100 μM) for 30 min. […] Data are mean±SD, n=4 replicates. […] Data are mean±SD, n=3 replicates. One representative of three experiment performed is shown. n.s. p>0,05, *p<0.05***, p<0.001, ****p<0.0001 by 1-way ANOVA with Bonferroni's multiple comparison test. 1, Immunoblot analysis of doxycycline inducible P2x4 knockdown APTAK colon tumor organoids treated with 5-FU (20 μM). Organoids were cultured in medium−/+doxycycline prior to the experiment. […] Organoids were cultured in medium−/+doxycycline prior to the experiment. […] Data are mean±SD, n=3.
In vitro Lgr5+ cells ablation experiments, organoids were treated with 20 ng/ml DT (Millipore, #322326) in the culture medium. For human LGR5+ cells ablation, we treated LGR5-iCT organoids with 500 nM BB homodimerizer. Other treatments were performed as described in each figure legends.

[4] = system: HCT-116 cells; conditions: combination of SAMC and rapamycin; cited from earlier work
[5] = system: subcutaneous AOM/DSSATKN tumors; assay type: in vivo, NSG mice
[6] = system: subcutaneous APTAKshP2x4 tumors; assay: Subcutaneous APTAKshP2x4 tumors, 5-FU/rapamycin with or without NAC; assay type: in vivo, mice; conditions: additional application of NAC (0,5% in drinking water)
Description: as §1
Organoids were collected using ice cold Cell Recovery Solution (Corning, #354253) and mechanically dissociated into small clusters. Dissociated organoid cells were resuspended in PBS, admixed with 50% Matrigel (Corning, #356231) in a final volume of 100 μl, and injected subcutaneously in the right flank of NSG mice. Tumor size was monitored with a digital caliper and tumor volumes were calculated according to the formula (length×width×width)/2. At the end of experiments mice were humanely euthanized to collect tumors.
DT (Millipore, #322326) treatment was performed as previously described (3, 4). Briefly, DT was injected intraperitonially at a dose of 50 μg/kg for the time indicated in individual experiments. mTOR inhibitor rapamycin (LC Labs, #-5000) was dissolved in 5% Ethanol, 5% PEG400 and 5% Tween 80 in PBS and injected i.p. at 10 mg/kg once a day for indicated time. 0.5% N-acetylcysteine (Sigma-Aldrich, #A91165) was applied ad libitum in drinking water. 0.5 mg/ml Doxycycline (Sigma #D9891) was applied ad libitum in drinking water containing 3% Sucrose. 5-FU (Sigma #F6627) was dissolved in sterile H2O and injected intraperitoneally for the time indicated in individual experiments at a concentration of 20 mg/kg.

[7] = system: S6 ribosomal protein phosphorylation, DNA damage and apoptosis markers
[8] = system: Lgr5EGFP-DTR(+) tumor organoids; assay: Tumor organoid survival / cell death upon treatment with or without DT; assay type: cell-based, mice
Text: Representative images are shown from at least three independent experiments. c, Average tumor size was counted on serial hematoxylin and eosin (H&E) stained sections on day 9 after 4 injections of either DT or vehicle. Data are mean±SD, n≥8/treatment. p>0.05 (n.s., not significant) by two-tailed Student's t-test. d, Immunohistochemical analysis and quantification of Lgr5-EGFP expression in GFP-stained colon tumor from Lgr5EGFP-DTR(+) mice on day 9 treated with DT as indicated in a). Representative images are shown (n≥8/treatment, scale bar=300 μm). […] Representative images are shown from four independent experiments (n=4/treatment, scale bar=200 μm). Data represent mean±SD, n=4/treatment. p>0.05 (n.s., not significant) by two-tailed Student's t-test. f, Flow cytometric analysis of Lgr5-EGFP+tumor cells from Lgr5EGFP-DTR(+) tumor organoids 24 h after DT treatment. Representative results are shown (n≥3). g, AOM/DSS colon tumor organoids from Lgr5EGFP-DTR(−) and Lgr5EGFP-DTR(+) mice were treated with DT (20 ng/ml) for 24 h. Representative images are shown from two independent experiments (scale bar=200 μm). h, Immunoblot analysis of Lgr5EGFP-DTR(+) and Lgr5EGFP-DTR(−) tumor organoids treated with DT for 24 h. […] 1, Control and raptor knockdown Lgr5EGFP-DTR(+) tumor organoids were passaged and counted after 72 h. […]

[9] = system: AOM/DSSATKN tumor organoids; conditions: for rescue of organoid reseeding capacity under 5-FU/rapamycin: inhibitor of potential proapoptotic DAMPs added to 5-FU (20 μM) plus rapamycin (10 μM), 48 hours, re-seeded 72 h
Description: Percentage of reseeding capacity compared to vehicle treated organoids is indicated. Data are mean±SD, n=4 replicates. […] Percentage of reseeding capacity compared to vehicle treated organoids is indicated.

[10] = system: human colon organoids derived from tumor tissue; assay: ROS measurement with DCFDA in organoids; assay type: cell-based; conditions: 5-FU (20 μM, 20 h)
Description: as §1
ATP level in organoid supernatant or necrotic medium was measured using the CellTiter-Glo 2.0 Cell Viability Assay (Promega #G9242) according to the manufacturers instruction. ROS levels were measured using H2DCFDA (ThermoFisher #D339). Briefly, organoids were treated as indicated with 5-FU, stained with H2DCFDA and then analyzed for H2DCFDA positivity using fluorescence microscopy or FACS.

[11] = system: APTAK tumor organoids; assay: APTAK tumor organoids: S6 phosphorylation and organoid survival; assay type: cell-based, mice; conditions: 5-FU
Description: Organoids were cultured in medium−/+doxycycline prior to the experiment. […] Organoids were cultured in medium−/+doxycycline prior to the experiment.
Colon tumor organoids were cultured as previously described (27). AOM/DSS induced colon tumors were harvested by opening the colon longitudinally and dissociated enzymatically for 30-40 min in digestion media containing 1 mg/ml collagenase I (Sigma-Aldrich), 0.5 mg/ml Dispase (Roche), 50 μg/ml DNase (Sigma-Aldrich) in RPMI medium containing 2% FCS. Supernatant was washed and filtered through a 70 μM cell strainer. Cells were then embedded in Matrigel (Corning, #356231) and cultured in Advanced Dulbecco's modified Eagle's medium/F12 (Invitrogen, #12634-028) supplemented with Glutamax (Invitrogen, #35050038), Hepes (Invitrogen, #15630056), Pen/Strep (Invitrogen, #15140122), N2 supplement (Invitrogen, #17502048), B27supplement (Invitrogen, #17504044) and n-Acetylcysteine (Sigma-Aldrich, #A91165). EGF (Invitrogen, #PMG8045), RspoI and noggin were added as niche factor.

[12] = system: PC3 and C4-2B4 cells; conditions: selective P2XR4 antagonists; cited from earlier work

For `CN=[N+](C)[O-]` [azoxymethane], the “S6 phosphorylation in IEC” value [1] was “enhanced S6 phosphorylation in IEC”.

For “panitumumab: added to everolimus + mFOLFOX6 in phase I trial”, the toxicity [2] is given as “unacceptable level of toxicity”.

With `Nc1nc2c(ncn2[C@@H]2O[C@@H]3COP(=O)(O)O[C@H]4[C@@H](O)[C@H](n5cnc6c(N)ncnc65)O[C@@H]4COP(=O)(O)O[C@@H]2[C@@H]3O)c(=O)[nH]1` [cGAMP] the “phosphorylation of S6-ribosomal protein” value ([3]; exogenous cGAMP) was “induced phosphorylation of S6-ribosomal protein in a dose dependent manner”.

For `C=CCSSC[C@H](N)C(=O)O` [SAMC, S-allylmercapto-cysteine], the tumor suppression [4] is given as “enhanced tumor-suppressing ability”.

For `CC(=O)N[C@@H](CS)C(=O)O` [NAC, N-acetylcysteine], the “apoptosis in tumor tissues (cleaved Caspase 3)” value ([5]; NAC (0,5% in drinking water) in DT/rapamycin treated animals) was “reduced apoptosis in tumor tissues”, the “tumor regression in 5-FU/rapamycin treated mice” value [6] was “revert tumor regression” and the “DNA damage and apoptosis in tumor organoids” value ([7]; NAC (2 mM) in addition to DT and rapamycin, compared to DT/rapamycin alone) was “decreased DNA damage and apoptosis”.

In the case of `Cc1nc(N=Nc2ccc(S(=O)(=O)O)cc2S(=O)(=O)O)c(COP(=O)(O)O)c(C=O)c1O` [PPADS], the “Lgr5+ cell death induced S6 phosphorylation” value ([3]; non-selective P2 receptor antagonists) is reported as “blocked Lgr5+ cell death induced S6 phosphorylation”.

For `CNC(=O)c1ccc(C)c(-n2c(C)cc(OCc3ccc(F)cc3F)c(Br)c2=O)c1` [PH797804], the tumor organoid survival ([8]; MAPK inhibitor (JNK or p38) in the presence or absence of DT) was “did not affect tumor organoid survival”.

With Enbrel the “rescue of organoid reseeding capacity under 5-FU/rapamycin” value [9] was “only inhibition of ROS signaling by NAC was able to rescue”.

In the case of `O=c1[nH]cc(F)c(=O)[nH]1` [5-FU, 5-fluorouracil], the “phosphorylation of S6” value ([3]; 5-FU, absence of Lgr5+ cells (Noggin withdrawal)) is reported as “able to induce phosphorylation of S6”, the “ROS levels (DCFDA)” value [10] is reported as “tumor organoid specific ROS increase” and the S6 phosphorylation [11] is reported as “led to mTOR dependent S6 phosphorylation”. The S6 phosphorylation ([7]; 5-FU (20 μM, 24 hours), AOM/DSS tumor tissues and tumor organoids) was “induced S6 phosphorylation”.

For `COC(=O)C[C@H](NC(=O)[C@H](C)NC(=O)[C@@H](NC(=O)OCc1ccccc1)C(C)C)C(=O)CF` [zVAD, carbobenzoxy-valyl-alanyl-aspartyl-[O-methyl]-fluoromethyl ketone] (Cbz-Val-Ala-Asp(OMe)-CH2F), the “organoid survival under combined 5-FU/rapamycin treatment” value ([9]; apoptosis inhibitor zVAD (50 μM) added) was “rescued the negative effect of combined 5-FU/rapamycin treatment on organoid survival”.

With Anakinra: IL-1 signaling inhibitor the “rescue of organoid reseeding capacity under 5-FU/rapamycin” value [9] was “only inhibition of ROS signaling by NAC was able to rescue”.

For `Nc1ncnc2c1ncn2[C@@H]1O[C@H](COP(=O)(O)OP(=O)(O)OP(=O)(O)O)[C@@H](O)[C@H]1O` [ATP, adenosine triphosphate], the “phosphorylation of S6-ribosomal protein” value ([3]; Lgr5EGFP-DTR(−) tumor organoids, 100 μM, 30 min) was “induced phosphorylation of S6-ribosomal protein”.

In the case of `NC(=O)c1ncn([C@@H]2O[C@H](CO)[C@@H](O)[C@H]2O)c1O` [mizoribine], the organoid collapse ([8]; mizoribine in combination with DT-mediated depletion of Lgr5+ cells, ex vivo) is reported as “profound organoid collapse”, the S6-ribosomal protein phosphorylation ([5]; mizoribine in combination with DT-mediated depletion of Lgr5+ cells) is reported as “without affecting S6-ribosomal protein phosphorylation” and the “viable proliferative tumor cells” value ([5]; mizoribine in combination with DT-mediated depletion of Lgr5+ cells, s.c. tumors) is reported as “markedly reduced viable proliferative”.

In the case of `Cc1ccc(S(=O)(=O)N2c3ccccc3Oc3ccccc32)cc1` [PSB-12062], the “growth, mobility and apoptosis of PCa cells” value [12] is given as “impaired the growth and mobility of PCa cells but not apoptosis”.

In the case of `O=C(Nc1ccc(C(=O)Nc2ccc(C(=O)Nc3ccc(S(=O)(=O)O)c4cc(S(=O)(=O)O)cc(S(=O)(=O)O)c34)cc2)cc1)Nc1ccc(C(=O)Nc2ccc(C(=O)Nc3ccc(S(=O)(=O)O)c4cc(S(=O)(=O)O)cc(S(=O)(=O)O)c34)cc2)cc1` [NF279], the “ATP induced phosphorylation of S6” value [3] is reported as “did not decrease ATP dependent S6 phosphorylation”.

In the case of `Clc1cccc(-c2nnnn2Cc2cccnc2)c1Cl` [A-438079], the “ATP induced phosphorylation of S6” value [3] is reported as “did not decrease ATP dependent S6 phosphorylation”.

With Apyrase the “S6 phosphorylation induced by DT treatment or necrotic supernatant” value ([3]; Apyrase hydrolyzing released ATP) was “reduce the levels of S6 phosphorylation”.
